According to ChEMBL document CHEMBL1141465, “The design, synthesis and structure-activity relationships of 1-aryl-4-aminoalkylisoquinolines: a novel series of CRF-1 receptor antagonists” (Bioorg Med Chem Lett, 2008):
pKi: −log10 of the molar value. Converted amounts (≈) assume the structure as drawn.

How the values were obtained:
[1] = biological target: T1, Corticotropin-releasing factor receptor 1 (Homo sapiens, UniProt P34998); assay: Displacement of [125I]sauvagine from CRF1 receptor expressed in human IMR32 cells; assay type: cell-based, IMR-32
T1 sequence (P34998 whole entry): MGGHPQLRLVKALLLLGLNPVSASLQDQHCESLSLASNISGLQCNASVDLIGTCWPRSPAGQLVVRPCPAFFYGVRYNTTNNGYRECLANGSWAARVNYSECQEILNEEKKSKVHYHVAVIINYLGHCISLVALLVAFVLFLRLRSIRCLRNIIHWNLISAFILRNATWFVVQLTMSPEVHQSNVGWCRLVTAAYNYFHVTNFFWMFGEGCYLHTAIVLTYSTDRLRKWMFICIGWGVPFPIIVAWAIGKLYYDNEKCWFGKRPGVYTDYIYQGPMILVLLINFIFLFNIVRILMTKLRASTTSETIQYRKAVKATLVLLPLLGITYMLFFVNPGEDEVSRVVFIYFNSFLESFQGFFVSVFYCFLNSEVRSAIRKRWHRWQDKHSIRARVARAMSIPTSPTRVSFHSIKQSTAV

[2] = Solubility at pH 5.4; assay type: physicochemical; settings: buffer
[3] = Partition coefficient, log P of the compound; assay type: physicochemical; settings: octanol/water
[4] = Half life in rat liver microsomes; assay type: ADME, Microsome
[5] = Oral bioavailability of rat at 20 mg/kg; assay type: ADME, organism-based; settings: in vivo
[6] = Tmax in po dosed rat; assay type: ADME, organism-based; settings: in vivo
[7] = Cmax in po dosed rat; assay type: ADME, organism-based; parameters: route oral; settings: in vivo
[8] = Half life in po dosed rat; assay type: ADME, organism-based; settings: in vivo
[9] = Clearance in po dosed rat; assay type: ADME, organism-based; settings: in vivo
[10] = test system: Rattus norvegicus; assay: Volume of distribution in po dosed rat; assay type: ADME, organism-based; settings: in vivo

pKi [1]	solubility [2]	SMILES	other results
7.68	–	CCCN(CCC)c1c(C)nc(-c2ccc(Cl)cc2C)c2ccccc12	–
7.55	–	CCCN(CCC)c1c(C)nc(-c2ccc(OC)cc2C)c2ccccc12	–
< 5.00	–	CCCN(CCC)c1c(C)nc(-c2ccccc2)c2ccccc12	–
7.77	–	CCCN(CCC)c1c(C)nc(-c2ccc(OC(F)F)cc2OC)c2ccccc12	–
7.38	–	CCCN(CCC)c1c(C)nc(-c2ccc(OC)cc2OC)c2ccccc12	–
5.77	–	CCCN(CCC)c1c(C)nc(-c2ccccc2Cl)c2ccccc12	–
6.99	–	CCCN(CCC)c1c(C)nc(-c2ccc(Cl)cc2Cl)c2ccccc12	–
< 5.00	–	CCCN(CCC)c1c(C)nc(-c2cccc(Cl)c2)c2ccccc12	–
7.44	–	CCCN(CCC)c1c(C)nc(-c2ccc(OC)cc2CC)c2ccccc12	–
6.02	–	CCCN(CCC)c1c(C)nc(-c2ccc(Cl)cc2)c2ccccc12	–

The next lines start with the molecule.

SMILES	pKi [1]	solubility [2]	other results
CCCN(CCC)c1c(C)nc(-c2c(C)cc(OC)cc2C)c2ccccc12	7.59	–	–
CCCN(CCC)c1c(C)nc(-c2c(C)cc(C)cc2OCCN2CCC(O)CC2)c2ccccc12	7.39	125 µg/mL (≈ 255 µM)	–
CCCN(CCC)c1c(CC)nc(-c2c(C)cc(C)cc2OC)c2ccccc12	8.05	–	–
CCCNc1c(C)nc(-c2c(C)cc(C)cc2OC)c2ccccc12	6.78	–	–
CCCN(CCN1CCCC1)c1c(C)nc(-c2c(C)cc(C)cc2OC)c2ccccc12	6.67	120 µg/mL (≈ 278 µM)	–
CCCN(CCC)c1c(C)nc(-c2c(C)cc(C)cc2OC)c2ccccc12	8.22	< 0.5 µg/mL	logP [3]: 4.6; half-life [4]: 4 min
CCCN(CCC)c1c(C)nc(-c2c(C)cc(C)cc2OCCN2CCCCC2)c2ccccc12	6.92	27 µg/mL (≈ 57 µM)	–
CCCN(CC1CC1)c1c(C)nc(-c2c(C)cc(C)cc2OC)c2ccccc12	8.30	< 0.5 µg/mL	–
CCCN(CCC)c1c(C)nc(-c2c(C)cc(C)cc2OCCN(C)C)c2ccccc12	6.58	112 µg/mL (≈ 258 µM)	–
CCCN(CCC)c1c(C)nc(-c2c(C)cc(C)cc2OCCN2CCN(C)CC2)c2ccccc12	6.28	135 µg/mL (≈ 276 µM)	–
CCCN(CCC)c1c(C)nc(-c2c(C)cc(C)cc2OCCN2CCOCC2)c2ccccc12	7.52	–	–
CCCN(CCC)c1c(C)nc(-c2c(C)cc(C)cc2OCCN2CCCC(O)C2)c2ccccc12 (stereo unspecified)	7.49	131 µg/mL (≈ 268 µM)	–
CCCN(CCC)c1c(C)nc(-c2c(C)cc(C)cc2OCCN2CCCC2)c2ccccc12	6.76	105 µg/mL (≈ 228 µM)	–
CCCN(CCC)c1cnc(-c2c(C)cc(C)cc2OC)c2ccccc12	7.31	–	–
COc1cc(C)cc(C)c1-c1nc(C)c(N(CC2CC2)CC2CC2)c2ccccc12	8.15	< 0.5 µg/mL	–
CCCN(CCn1ccnc1)c1c(C)nc(-c2c(C)cc(C)cc2OC)c2ccccc12	5.97	107 µg/mL (≈ 250 µM)	–
CCCN(CCC)c1c(C)nc(-c2c(OC)cc(C(F)(F)F)cc2C(F)(F)F)c2ccccc12	8.10	< 0.5 µg/mL	bioavailability [5]: 4.8%; logP [3]: 5.7; Tmax [6]: 42 min; Cmax [7]: 387 ng/mL; half-life [8]: 324 min; CL/F [9]: 14.5 mL/min/kg; half-life [4]: 36 min; Vd [10]: 13 L/kg
COc1cc(C)cc(C)c1-c1nc(C)c(NCCN2CCCC2)c2ccccc12	< 5.00	103 µg/mL (≈ 264 µM)	–
